Test results: paper PMC10574351, “First-Row Transition Metal Complexes Incorporating the 2-(2′-pyridyl)quinoxaline Ligand (pqx), as Potent Inflammatory Mediators: Cytotoxic Properties and Biological Activities against the Platelet-Activating Factor (PAF) and Thrombin” (Molecules, 2023)

Legend:
[1] = test system: HeLa cells (cervical cancer cells); assay: MTT cell viability assay, HeLa; format: cell-based, human; conditions: for IC50: 48 h exposure, mean ± SD; for cytotoxic effect in HeLa: 48 h, concentrations up to 100 μΜ
Protocol: In this report, cell viability tests were conducted in HEK293T and HeLa cancer cells by means of the colorimetric 3-(4,5-dimethylthiazol-2-yl)-2,5-diphenyl tetrazolium bromide (MTT) assay after exposure for 48 h. A HeLa cancer cell line was selected since it is widely used in cytotoxicity studies. For all complexes, a 10 mM stock solution in DMSO (H2O for cisplatin) was prepared and diluted appropriately to reach the final concentration reported in the Materials and Methods. The non-cancerous HEK293T cell line was used for comparison. The IC50 values of the first-row metal complexes, the pqx ligand and cisplatin, presented herein were calculated using a dose-response model, which was obtained from sigmoidal fitting of dose-response curves.
The HEK293T cell line (immortalized human embryonic kidney cells) was obtained from the Biomedical Research Foundation Academy of Athens (BRFAA), Athens, Greece and the HeLa cell line (cervical cancer cells) was obtained from the National Centre For Scientific Research Demokritos (NCSR Demokritos), Athens, Greece.
Pqx metal complexes were diluted in stock solutions of 10 mM in dimethyl sulfoxide (DMSO). A similar concentration of cisplatin dissolved in H2O was used. HEK293T and HeLa cells were cultured in Dulbecco’s modified Eagle’s medium (DMEM) with high glucose (Biosera, Nuaille, France) supplemented with 10% fetal bovine serum at 37 °C and 5% CO2. Cells were seeded in sterile tissue culture 96-well plates (SPL Life Science, Pochon, Republic of Korea) at a density of 3000 cells per well. After 24 h, the medium was removed and replaced with fresh media containing various concentrations (0.01 μΜ, 0.1 μΜ, 1 μΜ, 10 μΜ, 25 μΜ, 40 μΜ, 55 μΜ, 70 μΜ, 85 μΜ and 100 μΜ) of the compounds to be tested and was further incubated for 48 h at 37 °C. Dimethyl sulfoxide (DMSO) was used as a vehicle at ≤1%. To measure cytotoxicity, a culture medium containing the compounds (or DMSO) was removed, and 100 μL of 0.5 mg/mL MTT reagent (Applichem, Darmstadt, Germany) diluted in DMEM was added to the cells for 3 h at 37 °C. After 3 h incubation in identical conditions, MTT was removed and 200 μL of DMSO was added. Absorbance values of formazan were measured at 540 nm using a BioTek Synergy H1 microplate reader (Agilent, Santa Clara, CA, USA). All compounds were tested in triplicate. The results were statistically analyzed using the nonlinear regression by GraphPad PRISM (Version 9).

[2] = test system: thrombin-induced aggregation in washed rabbit platelets (WRPs); assay: Inhibition of thrombin-induced aggregation in washed rabbit platelets; format: cell-based; conditions: for IC50: washed rabbit platelets, mean ± SD, read-out: IC50 (μM) towards Thrombin in WRPs
Protocol: The biological experiments of PAF-induced platelet aggregation as well as the evaluation of the inhibitory effect of its synthetic compounds were performed according to thoroughly described protocols. The inhibitory effect of the starting materials (pqx = 2-(2′-pyridyl)quinoxaline, CrCl3 × 3H2O, MnCl2 × 4H2O, FeCl2 × 4H2O, CoCl2 × 6H2O, NiCl2 × 6H2O, CuCl2 × 2H2O, ZnCl2) and of the coordination compounds 1–7, towards PAF and thrombin related biological activities (aggregation experiments) in washed rabbit platelets (WRPs) was carried out according to previously described protocols. Briefly, in order to obtain the washed rabbit platelets (WRPs), platelet-rich plasma was washed on Ficoll–Paque cushions and adjusted to […] platelets/mL of Tyrode’s buffer, pH 7.2. The dilution of PAF was prepared using pyrogen-free 0.15 M NaCl containing 2.5 mg/mL of crystallized bovine serum albumin, required for dispersion of PAF. The compounds under investigation were firstly dissolved in the appropriate solvent that is: DMSO for pqx (0.010 M), H2O for CrCl3 × 3H2O (0.016 M), H2O for MnCl2 × 4H2O (0.004 M), DMSO-EtOH (4/1, v/v)) for FeCl2 × 4H2O (0.014 M), H2O for CoCl2 × 6H2O (0.010 M), H2O for NiCl2 × 6H2O (0.010 M), H2O for CuCl2 × 2H2O (0.008 M), H2O for ZnCl2 (0.013 M), DMSO for 1 (0.017 M), DMSO for 2 (0.010 M0, DMSO for 3 (0.004 M), DMSO for 4 (0.002 M), DMSO for 5 (0.003 M), DMSO-EtOH-H2O (25/1/1, v/v)) for 6 (0.006 M), DMSO for 7 (0.002 M) and aliquots of these solutions were then added in solutions (2.5 mg BSA/mL) of saline.
The experiment on the inhibitory effect of each compound of interest against the washed rabbit platelets (WRPs) aggregation was carried out as per the already described method. The platelets were from male New Zealand white rabbits (about 20), individually housed in stainless steel cages in an air-conditioned room (19 ± 1 °C, 55 ± 5% humidity on a 12/12 h artificial light/dark cycle). Blood samples were drawn from the main ear artery. Microliters of PAF in a final concentration of about 10^–10 M were added to the cuvette of the aggregometer, and the height of the platelet aggregation was monitored. The platelet aggregation induced by PAF, or thrombin was measured before (considered as 0% inhibition) and after the addition of various concentrations of the examined sample, creating a linear curve of percentage inhibition (ranging from 0 to 100%) versus different concentrations of the sample. From this curve, the concentration of the sample that inhibited 50% PAF-induced aggregation was calculated, and this value was defined as IC50 (Inhibitory concentration for 50% Inhibition). Dithiothreitol-insensitive PAF choline phosphotransferase, lyso-PAF:acetyl-CoA acetyltransferase and PAF-acetylhydrolase activity assays were performed on the homogenates of rabbit leukocytes while the activity of lipoprotein-associated phospholipase A2 was assessed on plasma as previously described. The experiments were performed in a model 400 vs. aggregometer of Chrono-Log (Havertown, PA, USA) coupled to a Chrono-Log recorder at 37 °C with constant stirring at 1200 rpm. The separation of platelets was performed with centrifugations in a 3L-R Heraeus Labofuge (Hvanau, Germany), a 400R Heraeus Labofuge and an RC-5B Sorvall (Newtown, CT, USA) refrigerated super speed centrifuge. Bovine serum albumin (BSA), PAF and analytical solvents for the biological assays were purchased from Sigma. Standard active thrombin was purchased from Sigma, St. Lewis, MO, USA. The measurements were performed in duplicates for each sample concentration in three different WRP preparations, in order to ensure reproducibility. All experiments were also followed by appropriate control tests of the solvent used (saline solution of BSA, DMSO aliquots in a saline solution of BSA-2.5 mg BSA/mL saline- or just in saline), in WRPs. […]

Q: What does the source list for [Fe(pqx)Cl2]2 [Complex 6]?
A: IC50 [1]: 70.9 ± 2.5 µM; IC50 [2]: 0.46 ± 0.03 µM

Q: Which results are given for mer-[Cr(pqx)Cl3(H2O)] [Complex 1]?
A: cytotoxic effect in HeLa [1]: only slightly affected; IC50 [1]: 82.8 ± 3.12 µM; IC50 [2]: 54.6 ± 10.4 µM

Q: [Co(pqx)Cl2(DMF)] [Complex 2] was tested. Which “cytotoxic effect in HeLa” value [1] did it give?
A: only slightly affected

Q: What about the IC50 [1] of the same compound?
A: 89.1 ± 7.77 µM

Q: And the IC50 [2]?
A: 8.9 ± 1.3 µM

Q: CS(C)=O.[Cl][Cu][Cl].c1ccc(-c2cnc3ccccc3n2)nc1 [Complex 3, [Cu(pqx)Cl2(DMSO)]] was tested. Which IC50 [1] did it give?
A: 27.2 ± 1.23 µM

Q: And the IC50 [2]?
A: 3.1 ± 0.4 µM

Q: Which “cytotoxic effect in HeLa” value [1] does the source give for [Ni(pqx)Cl2]2 [Complex 7] here?
A: only slightly affected

Q: What about the IC50 [1] of the same compound?
A: 82.3 ± 9.49 µM

Q: What about the IC50 [2] of the same compound?
A: 5.6 ± 0.34 µM

Q: Which results are given for [Mn(pqx)(H2O)2Cl2]2 [Complex 5]?
A: cytotoxic effect in HeLa [1]: practically non-cytotoxic; IC50 [2]: 14 ± 2.1 µM

Q: What does the source list for [Cl][Zn][Cl].c1ccc(-c2cnc3ccccc3n2)nc1 [Complex 4, [Zn(pqx)Cl2]]?
A: IC50 [1]: 77.8 ± 6.51 µM; fold decrease of thrombin IC50 relative to the metal precursor ([2]; complex versus its metal precursor): ~ 12 fold; IC50 [2]: 3.5 ± 0.3 µM
